According to US7332296B2, “Screening assay for enzymes involved in pathophysiology using SELDI-TOF mass spectrometry” (Wright State University, priority 2004, dated 2008):

What was measured:
[1] = biological target: T1, Plasma ACE1 (Mus musculus, UniProt P09470); test: SELDI-TOF-MS assay of ACE activity in plasma (Ang I substrate, Ang II product); type: biochemical; conditions: data not shown
T1 construct: Plasma ACE1 converted Ang I (Ang 1-10; 1296.5 m/z) to Ang II; from tissue; host or cells: mouse plasma (crude, 0.5 µl)
T1 sequence (P09470 35-1237 limits assumed): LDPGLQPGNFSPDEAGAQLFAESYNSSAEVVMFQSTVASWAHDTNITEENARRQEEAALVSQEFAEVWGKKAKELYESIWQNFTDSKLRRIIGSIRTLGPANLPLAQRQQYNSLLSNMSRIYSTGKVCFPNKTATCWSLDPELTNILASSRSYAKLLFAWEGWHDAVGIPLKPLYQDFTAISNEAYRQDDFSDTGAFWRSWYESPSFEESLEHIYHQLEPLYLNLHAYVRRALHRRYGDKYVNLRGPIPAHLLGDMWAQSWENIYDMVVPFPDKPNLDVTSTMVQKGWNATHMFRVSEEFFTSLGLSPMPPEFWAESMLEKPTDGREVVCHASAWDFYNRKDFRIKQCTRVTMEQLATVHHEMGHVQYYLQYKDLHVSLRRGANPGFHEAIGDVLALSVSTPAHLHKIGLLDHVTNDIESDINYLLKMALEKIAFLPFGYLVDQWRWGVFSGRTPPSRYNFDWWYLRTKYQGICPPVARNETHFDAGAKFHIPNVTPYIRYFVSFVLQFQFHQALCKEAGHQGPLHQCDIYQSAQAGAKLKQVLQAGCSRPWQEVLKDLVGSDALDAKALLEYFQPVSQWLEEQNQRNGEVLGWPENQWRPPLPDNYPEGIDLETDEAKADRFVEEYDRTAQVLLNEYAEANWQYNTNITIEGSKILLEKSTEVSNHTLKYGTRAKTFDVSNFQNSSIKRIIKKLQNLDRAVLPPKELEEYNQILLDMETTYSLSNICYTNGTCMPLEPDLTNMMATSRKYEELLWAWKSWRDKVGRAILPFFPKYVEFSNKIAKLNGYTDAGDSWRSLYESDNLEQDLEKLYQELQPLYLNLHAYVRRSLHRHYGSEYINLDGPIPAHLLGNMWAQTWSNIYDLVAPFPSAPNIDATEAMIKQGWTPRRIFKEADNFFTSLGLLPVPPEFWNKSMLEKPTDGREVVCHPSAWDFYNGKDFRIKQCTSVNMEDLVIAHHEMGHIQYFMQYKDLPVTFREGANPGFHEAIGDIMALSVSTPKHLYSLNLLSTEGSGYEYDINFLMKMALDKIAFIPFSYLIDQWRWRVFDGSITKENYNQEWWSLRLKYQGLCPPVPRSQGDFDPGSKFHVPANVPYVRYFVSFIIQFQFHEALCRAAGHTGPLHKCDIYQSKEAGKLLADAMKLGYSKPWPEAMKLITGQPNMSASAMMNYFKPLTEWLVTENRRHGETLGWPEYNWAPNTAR

[2] = biological target: T2, renin (Mus musculus, UniProt P06281); test: SELDI-TOF-MS assay of renin activity in plasma (AGT substrate; sequential renin and ACE1); type: biochemical; conditions: AGT + plasma + captopril (10 μM); FIG. 1F
T2 construct: Plasma incubated with AGT (1759, m/z) results in peptides with m/z that matched Ang 1 and Ang II; from tissue; host or cells: mouse plasma (crude, 0.5 µl)
T2 sequence (P06281 72-402): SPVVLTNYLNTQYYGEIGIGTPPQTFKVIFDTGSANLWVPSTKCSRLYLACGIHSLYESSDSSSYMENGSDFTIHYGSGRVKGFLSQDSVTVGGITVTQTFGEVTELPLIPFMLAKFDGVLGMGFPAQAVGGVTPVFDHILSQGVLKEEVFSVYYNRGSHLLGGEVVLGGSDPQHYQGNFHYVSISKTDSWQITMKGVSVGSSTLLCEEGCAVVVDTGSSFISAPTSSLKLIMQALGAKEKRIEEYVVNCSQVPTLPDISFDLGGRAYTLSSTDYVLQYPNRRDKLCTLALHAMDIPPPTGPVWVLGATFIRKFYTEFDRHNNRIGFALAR
Procedure: For measurement of enzyme activities, substrates (Ang II or AGT) were incubated with plasma or tissue extracts and the peptide products were measured using SELDI-TOF MS. For ACE activity, plasma (0.5-2.5 μl) or tissue extracts (1 μg protein) were incubated in 50 μl MES buffer (50 mM, pH 6.7) containing 2 mM PMSF and varying concentrations of Ang I(0.1-10 μM) at 37° C. One μl of the reaction mixture was spotted onto ProteinChip arrays and analyzed as previously described in Cool, D. R. & Hardiman, A., “C-Terminal sequencing of peptide hormones using carboxypeptidase Y and SELDI-TOF mass spectrometry” Biotechniques 36, 32-34 (2004), incorporated herein by reference. […]. […]

With `c1cnc2c(c1)ccc1cccnc12` [1, 10 phenanthroline] the “ACE activity (conversion of Ang I to Ang II)” value ([1]; 0.44 mM 1, 10 phenanthroline) was “blocked”.
With `O=C(O)CN(CCN(CC(=O)O)CC(=O)O)CC(=O)O` [EDTA] the “ACE activity (conversion of Ang I to Ang II)” value ([1]; 10 mM EDTA) was “blocked”.
For `C[C@H](CS)C(=O)N1CCC[C@H]1C(=O)O` [captopril], the “effect on renin activity” value [2] was “no effect”.
